# Measured values as given in patent publication US12134611B2, “Compounds and compositions for treating conditions associated with NLRP activity” (Novartis AG, priority 2018, dated 2024).
# Target: T1, hNLRP3 (Homo sapiens, UniProt Q96P20)
# T1 construct: THP-1 cells were purchased from the American Type Culture Collection; host or cells: THP-1 cells, PMA-differentiated, stimulated with gramicidin
# Test: IL-1β production in PMA-differentiated THP-1 cells stimulated with gramicidin (hTHP-1 assay)
# Assay type: cell-based
# Conditions: read-out: NLRP3 Antagonist, hNLRP3 (THP-1, IL-1b) Normalized: GeoMean IC50
# Procedure: Procedure 1: IL-1β Production in PMA-Differentiated THP-1 Cells Stimulated with Gramicidin.
# THP-1 cells were purchased from the American Type Culture Collection and sub-cultured according to instructions from the supplier. […] Prior to the experiment, compounds were dissolved in dimethyl sulfoxide (DMSO) to generate a 30 mM stock. […] DMSO was backfilled in the plate to achieve a final DMSO assay concentration of 0.37%. The plate was then sealed and stored at room temperature until required.
# THP-1 cells were treated with PMA (Phorbol 12-myristate 13-acetate) (20 ng/ml) for 16-18 hours. On the day of the experiment the media was removed and adherent cells were detached with trypsin for 5 minutes.
# Procedure 2: IL-1β Production in PMA-Differentiated THP-1 Cells Stimulated with Gramicidin.
# THP-1 cells were purchased from the American Type Culture Collection and sub-cultured according to instructions from the supplier. […] Prior to the experiment THP-1 were treated with PMA (Phorbol 12-myristate 13-acetate) (20 ng/ml) for 16-18 hours. Compounds were dissolved in dimethyl sulfoxide (DMSO) to generate a 30 mM stock. On the day of the experiment the media was removed and adherent cells were detached with trypsin for 5 minutes. […] Final DMSO concentration was at 0.37%. Cells were incubated with compounds for 1 hour and then stimulated with gramicidin (5 μM) (Enzo) for 2 hours. Plates were then centrifuged at 340 g for 5 min. Cell free supernatant (40 μL) was collected using a 96-channel PlateMaster (Gilson) and the production of IL-1β was evaluated by HTRF (cisbio).
# 1. Experimental procedure
# 1.2 Compound Preparation • Prepare the 3-fold serial dilution of the compounds with DMSO in a 384-well LDV Microplate using TECAN EVO system to generate the compound source plate with 10 concentrations. Top concentration is 30 mM. FIG. 5 depicts the layout of the microplate.
# FIG. 5 depicts the layout of the plates: HC: 100 μM CRID3 (MCC950)+5 μM gramicidin LC: 5 μM Gramicidin.
# 1.5 IL-1β Detection • 1) Homogenize the 5× diluent #5 with a vortex and add 1 volume of stock solution in 4 volumes of distilled water. • 2) Thaw 20× stock solution of anti-IL1β-Cryptate-antibody and anti-IL1β XL-antibody. […] 2. Data Analysis: • 1.
# T1 sequence (Q96P20 whole entry): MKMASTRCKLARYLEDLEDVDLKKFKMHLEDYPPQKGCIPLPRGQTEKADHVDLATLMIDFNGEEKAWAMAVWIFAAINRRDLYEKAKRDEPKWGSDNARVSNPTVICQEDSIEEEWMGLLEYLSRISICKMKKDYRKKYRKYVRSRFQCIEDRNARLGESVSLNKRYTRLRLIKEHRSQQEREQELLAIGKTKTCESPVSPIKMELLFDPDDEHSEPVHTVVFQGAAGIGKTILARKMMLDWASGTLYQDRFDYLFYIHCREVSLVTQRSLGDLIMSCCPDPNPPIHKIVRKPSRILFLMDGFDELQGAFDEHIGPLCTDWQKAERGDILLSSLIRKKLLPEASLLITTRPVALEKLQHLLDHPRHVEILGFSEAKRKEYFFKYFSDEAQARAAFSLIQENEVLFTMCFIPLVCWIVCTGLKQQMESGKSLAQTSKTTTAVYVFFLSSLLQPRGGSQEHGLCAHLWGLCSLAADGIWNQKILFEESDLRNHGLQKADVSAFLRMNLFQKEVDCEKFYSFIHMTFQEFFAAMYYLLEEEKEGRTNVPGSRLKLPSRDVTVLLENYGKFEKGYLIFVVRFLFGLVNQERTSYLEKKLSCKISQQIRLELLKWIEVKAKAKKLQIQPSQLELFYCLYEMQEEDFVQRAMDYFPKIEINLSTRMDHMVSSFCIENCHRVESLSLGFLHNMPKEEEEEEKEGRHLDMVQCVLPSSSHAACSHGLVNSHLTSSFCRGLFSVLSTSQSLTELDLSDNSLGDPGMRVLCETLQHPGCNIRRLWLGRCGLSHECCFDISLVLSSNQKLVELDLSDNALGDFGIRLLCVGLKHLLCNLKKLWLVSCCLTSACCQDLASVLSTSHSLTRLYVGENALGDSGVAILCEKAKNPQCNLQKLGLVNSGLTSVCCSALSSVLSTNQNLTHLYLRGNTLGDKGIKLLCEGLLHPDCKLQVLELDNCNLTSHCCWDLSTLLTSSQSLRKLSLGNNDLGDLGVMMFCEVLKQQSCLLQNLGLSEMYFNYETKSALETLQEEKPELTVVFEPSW
row,IC50 [µM],Compound
1,0.2 to 1,"CC(C)(O)c1ccc2c(c1)S(=O)(=NC(=O)Nc1c3c(cc4c1CCC4)CCC3)NC2=O (racemic) [Compound 127, 1-(1,2,3,5,6,7-hexahydro-s-indacen-4-yl)-3-[6-(2-hydroxypropan-2-yl)-1,3-dioxo-2,3-dihydro-1-^λ-6,2-benzothiazol-1-ylidene]urea]"
2,1 to 5,"O=C(N=S1(=O)NC(=O)c2ccccc21)Nc1c2c(cc3c1CCC3)CCC2 (racemic) [Compound 129, 3-(1,3-dioxo-2,3-dihydro-1-^λ-6,2-benzothiazol-1-ylidene)-1-(1,2,3,5,6,7-hexahydro-s-indacen-4-yl)urea]"
3,0.2 to 1,"CC1(C)CS(=O)(=NC(=O)Nc2c3c(cc4c2CCC4)CCC3)NC1=O (single isomer, unassigned) [Compound 102a, (S or R)-1-(4,4-dimethyl-1-oxido-3-oxo-1l6-isothiazolidin-1-ylidene)-3-(1,2,3,5,6,7-hexahydro-s-indacen-4-yl)urea]"
4,5 to 30,"CC1(C)CS(=O)(=NC(=O)Nc2c3c(cc4c2CCC4)CCC3)NC1=O (single isomer, unassigned) [Compound 102b, (R or S)-1-(4,4-dimethyl-1-oxido-3-oxo-1l6-isothiazolidin-1-ylidene)-3-(1,2,3,5,6,7-hexahydro-s-indacen-4-yl)urea]"
5,> 30,"O=C(N=S1(=O)NC(=O)c2ccc(Br)cc21)Nc1c2c(cc3c1CCC3)CCC2 (single isomer, unassigned) [Compound 103a, (R or S)-1-(6-bromo-1-oxido-3-oxo-2,3-dihydro-1l4-benzo[d]isothiazol-1-ylidene)-3-(1,2,3,5,6,7-hexahydro-s-indacen-4-yl)urea]"
6,5 to 30,"O=C(N=S1(=O)NC(=O)c2ccc(Br)cc21)Nc1c2c(cc3c1CCC3)CCC2 (single isomer, unassigned) [Compound 103b, (S or R)-1-(6-bromo-1-oxido-3-oxo-2,3-dihydro-1l4-benzo[d]isothiazol-1-ylidene)-3-(1,2,3,5,6,7-hexahydro-s-indacen-4-yl)urea]"
7,> 30,"CC(C)c1cc2c(c(C(C)C)c1CC(=O)N=S1(=O)NC(=O)c3ccc(C(C)(C)O)cc31)COC2 (single isomer, unassigned) [Compound 104a, (S or R)-2-(4,6-diisopropyl-1,3-dihydroisobenzofuran-5-yl)-N-(6-(2-hydroxypropan-2-yl)-1-oxido-3-oxo-2,3-dihydro-1l4-benzo[d]isothiazol-1-ylidene)acetamide]"
8,1 to 5,"CC(C)(O)c1ccc2c(c1)S(=O)(=NC(=O)Nc1c3c(nc(C4CC4)c1C1CC1)CCC3)NC2=O (single isomer, unassigned) [Compound 106a, 1(R or S)-1-(2,3-dicyclopropyl-6,7-dihydro-5H-cyclopenta[b]pyridin-4-yl)-3-(6-(2-hydroxypropan-2-yl)-1-oxido-3-oxo-2,3-dihydro-1l4-benzo[d]isothiazol-1-ylidene)urea]"
9,> 30,"CC(C)(O)c1ccc2c(c1)S(=O)(=NC(=O)Nc1c3c(nc(C4CC4)c1C1CC1)CCC3)NC2=O (single isomer, unassigned) [Compound 106b, 1(S or R)-1-(2,3-dicyclopropyl-6,7-dihydro-5H-cyclopenta[b]pyridin-4-yl)-3-(6-(2-hydroxypropan-2-yl)-1-oxido-3-oxo-2,3-dihydro-1l4-benzo[d]isothiazol-1-ylidene)urea]"
10,> 30,"CN1Cc2ccccc2S1(=O)=NC(=O)Nc1c2c(cc3c1CCC3)CCC2 (single isomer, unassigned) [Compound 107a]"
11,0.2 to 1,"Cc1c(C(F)(F)F)nc2c(c1NC(=O)N=S1(=O)NC(=O)c3ccc(C(C)(C)O)cc31)CCC2 (single isomer, unassigned) [Compound 108a, (R or S)-1-(6-(2-hydroxypropan-2-yl)-1-oxido-3-oxo-2,3-dihydro-1l4-benzo[d]isothiazol-1-ylidene)-3-(3-methyl-2-(trifluoromethyl)-6,7-dihydro-5H-cyclopenta[b]pyridin-4-yl)urea]"
12,> 30,"Cc1c(C(F)(F)F)nc2c(c1NC(=O)N=S1(=O)NC(=O)c3ccc(C(C)(C)O)cc31)CCC2 (single isomer, unassigned) [Compound 108b, (S or R)-1-(6-(2-hydroxypropan-2-yl)-1-oxido-3-oxo-2,3-dihydro-1l4-benzo[d]isothiazol-1-ylidene)-3-(3-methyl-2-(trifluoromethyl)-6,7-dihydro-5H-cyclopenta[b]pyridin-4-yl)urea]"
13,0.04 to 0.2,"CC(C)(O)c1ccc2c(c1)S(=O)(=NC(=O)Nc1c3c(cc4c1CC4)CCC3)NC2=O (single isomer, unassigned) [Compound 112a, (R or S)-1-(6-(2-hydroxypropan-2-yl)-1-oxido-3-oxo-2,3-dihydro-1l4-benzo[d]isothiazol-1-ylidene)-3-(2,4,5,6-tetrahydro-1H-cyclobuta[f]inden-3-yl)urea]"
14,1 to 5,"CC(C)(O)c1ccc2c(c1)S(=O)(=NC(=O)Nc1c3c(cc4c1CC4)CCC3)NC2=O (single isomer, unassigned) [Compound 112b, (S or R)-1-(6-(2-hydroxypropan-2-yl)-1-oxido-3-oxo-2,3-dihydro-1l4-benzo[d]isothiazol-1-ylidene)-3-(2,4,5,6-tetrahydro-1H-cyclobuta[f]inden-3-yl)urea]"
15,0.2 to 1,"O=C1CCCS(=O)(=NC(=O)Nc2c3c(cc4c2CCC4)CCC3)N1 (single isomer, unassigned) [Compound 113a, (S or R)-1-(1,2,3,5,6,7-hexahydro-s-indacen-4-yl)-3-(1-oxido-3-oxo-1l6,2-thiazinan-1-ylidene)urea]"
16,5 to 30,"CC(C)(O)c1ccc2c(c1)S(=O)(=NC(=O)Cc1c3c(cc4c1CCC4)CCC3)NC2=O (single isomer, unassigned) [Compound 115a, (S or R)-2-(1,2,3,5,6,7-hexahydro-s-indacen-4-yl)-N-(6-(2-hydroxypropan-2-yl)-1-oxido-3-oxo-2,3-dihydro-1l4-benzo[d]isothiazol-1-ylidene)acetamide]"
17,5 to 30,"O=C(N=S1(=O)CCCN1)Nc1c2c(cc3c1CCC3)CCC2 (single isomer, unassigned) [Compound 119a, (R or S)-1-(1,2,3,5,6,7-hexahydro-s-indacen-4-yl)-3-(1-oxido-1l6-isothiazolidin-1-ylidene)urea]"
18,0.2 to 1,"CC(C)(O)c1ccc2c(c1)C(=O)NS2(=O)=NC(=O)Nc1c2c(cc3c1CCC3)CCC2 (single isomer, unassigned) [Compound 121a, (R or S)-1-(1,2,3,5,6,7-hexahydro-s-indacen-4-yl)-3-(5-(2-hydroxypropan-2-yl)-1-oxido-3-oxo-2,3-dihydro-1l4-benzo[d]isothiazol-1-ylidene)urea]"
19,5 to 30,"CC(C)(O)c1ccc2c(c1)C(=O)NS2(=O)=NC(=O)Nc1c2c(cc3c1CCC3)CCC2 (single isomer, unassigned) [Compound 121b, (S or R)-1-(1,2,3,5,6,7-hexahydro-s-indacen-4-yl)-3-(5-(2-hydroxypropan-2-yl)-1-oxido-3-oxo-2,3-dihydro-1l4-benzo[d]isothiazol-1-ylidene)urea]"
20,0.04 to 0.2,"CC(C)(O)c1ccc2c(c1)S(=O)(=NC(=O)Nc1c3c(cc4c1CCC4)CCC3)NC2=O (single isomer, unassigned) [Compound 127a, (R or S)-1-(1,2,3,5,6,7-hexahydro-s-indacen-4-yl)-3-(6-(2-hydroxypropan-2-yl)-1-oxido-3-oxo-2,3-dihydro-1l4-benzo[d]isothiazol-1-ylidene)urea]"
21,5 to 30,"CC(C)(O)c1ccc2c(c1)S(=O)(=NC(=O)Nc1c3c(cc4c1CCC4)CCC3)NC2=O (single isomer, unassigned) [Compound 127b, (S or R)-1-(1,2,3,5,6,7-hexahydro-s-indacen-4-yl)-3-(6-(2-hydroxypropan-2-yl)-1-oxido-3-oxo-2,3-dihydro-1l4-benzo[d]isothiazol-1-ylidene)urea]"
22,0.2 to 1,"O=C(N=S1(=O)NC(=O)c2ccccc21)Nc1c2c(cc3c1CCC3)CCC2 (single isomer, unassigned) [Compound 129a, 3-[(1R or 1S)-1,3-dioxo-2,3-dihydro-1-^λ-6,2-benzothiazol-1-ylidene]-1-(1,2,3,5,6,7-hexahydro-s-indacen-4-yl)urea]"
23,5 to 30,"O=C(N=S1(=O)NC(=O)c2ccccc21)Nc1c2c(cc3c1CCC3)CCC2 (single isomer, unassigned) [Compound 129b, 3-[(1S or 1R)-1,3-dioxo-2,3-dihydro-1-^λ-6,2-benzothiazol-1-ylidene]-1-(1,2,3,5,6,7-hexahydro-s-indacen-4-yl)urea]"
